Measurements taken from patent US5308836A, “Pharmaceutical composition of stabilized [Leu^13 ]-motilin-Hse” (Sanwa Kagaku Kenkyusho Co., Ltd., priority 1991, dated 1994).
Read-outs that look alike come from different tables or passages of the source.

Columns and labels:
[1] = compared with native type motilin and [Leu^13 ]-motilin; cited from earlier work
[2] = format: physicochemical; conditions: lyophilized powder, no additive
Procedure: (§1) Aqueous solutions, each containing 20 μg/ml of [Leu^13 ]-motilin were aseptically prepared by dissolving 1 mg of [Leu^13 ]-motilin in a refined water and adding 0.1N-sodium hydroxide and 0.1N-hydrochloric acid to adjust pH of each solution in various values.
(§2) Each of the solutions different in pH value was aseptically charged in a glass vial to lyophilize the same. Each vial was stored in a constant temperature bath kept at 60° C. for 30 days and then a remaining amount of [Leu^13 ]-motilin was measured with HPLC method to check the relation with the pH value of the solution.
Aqueous solutions, each containing 20 μg/ml of [Leu^13 ]-motilin-Hsewere aseptically prepared by dissolving 1 mg of [Leu^13 ]-motilin-Hse in a refined water and adding 0.1N-sodium hydroxide and 0.1N-hydrochloric acid to adjust pH of each solution in various values.
as §2, with “]-motilin-Hse and amount of [Leu^13 ]-motilin-Hse-lactone formed by modification of Hse residue at 23-position of the former were” for “]-motilin was”, “solution. […]” for “solution.”

[3] = format: physicochemical; conditions: for Amount of formed [Leu^13 ]-motilin-Hse-lactone: aqueous solution 20 μg/ml
Procedure: An aqueous solution containing 20 μg/ml of [Leu^13 ]-motilin-Hse was aseptically prepared by dissolving 1 mg of [Leu^13 ]-motilin-Hse in a refined water and adding 0.1N-sodium hydroxide and 0.1N-hydrochloric acid to adjust pH of the solution to 6.0 or 7.0.
Each of the solutions different in pH value was aseptically charged in a glass vial to seal the same. Each vial was stored in a constant temperature bath kept at 60° C. for 30 days and then a remaining amount of [Leu^13 ]-motilin-Hse was measured with HPLC method. […]
An aqueous solution containing 20 μg of [Leu^13 ]-motilin-Hse and 30 mg/ml of tartaric acid was aseptically prepared by dissolving 1 mg of [Leu^13 ]-motilin-Hse and tartaric acid in a refined water and adding 0.1N-sodium hydroxide and 0.1N-hydrochloric acid to adjust pH of the solution to 6.0 or 7.0.
as §1
as §2, with “seal” for “lyophilize”
(§3) Aqueous solutions, each containing 20 μg/ml of [Leu^13 ]-motilin-Hsewere aseptically prepared by dissolving 1 mg of [Leu^13 ]-motilin-Hse in a refined water and adding 0.1 N-sodium hydroxide and 0.1 N-hydrochloric acid to adjust pH of each solution in various values.
as §2, with “seal” for “lyophilize”, “]-motilin-Hse and amount of [Leu^13 ]-motilin-Hse-lactone formed by modification of Hse residue at 23-position of the former were” for “]-motilin was”
as §3, with “]-motilin-Hseand 30 mg/ml of tartaric acid were” for “]-motilin-Hsewere”, “]-motilin-Hse and tartaric acid” for “]-motilin-Hse”
as §3, with “]-motilin-Hseand 27.2 mg/ml of potassium dihydrogenphosphate were” for “]-motilin-Hsewere”, “]-motilin-Hse and potassium dihydrogenphosphate” for “]-motilin-Hse”, “N sodium” for “N-sodium”

Amount of formed [Leu^13 ]-motilin-Hse-lactone ([2]; solution pH 3.0, 60° C. 30 days): 25.1%
Amount of formed [Leu^13 ]-motilin-Hse-lactone ([2]; solution pH 4.0, 60° C. 30 days): 16.9%
Amount of formed [Leu^13 ]-motilin-Hse-lactone ([2]; solution pH 4.5, 60° C. 30 days): 7.3%
Amount of formed [Leu^13 ]-motilin-Hse-lactone ([2]; solution pH 5.0, 60° C. 30 days): 3.9%
Amount of formed [Leu^13 ]-motilin-Hse-lactone ([2]; solution pH 5.5, 60° C. 30 days): 1.8%
Amount of formed [Leu^13 ]-motilin-Hse-lactone ([2]; solution pH 6.0, 60° C. 30 days): 0%
Amount of formed [Leu^13 ]-motilin-Hse-lactone ([2]; solution pH 6.5, 60° C. 30 days): 0%
Amount of formed [Leu^13 ]-motilin-Hse-lactone ([2]; solution pH 7.0, 60° C. 30 days): 0%
Amount of formed [Leu^13 ]-motilin-Hse-lactone ([2]; solution pH 8.0, 60° C. 30 days): 0%
Amount of formed [Leu^13 ]-motilin-Hse-lactone ([2]; solution pH 9.0, 60° C. 30 days): 0%
pH range of relatively stable state ([3]; [Leu^13 ]-motilin-Hse aqueous solution, no additive, 60° C. 30 days): 4.0-6.0
Amount of formed [Leu^13 ]-motilin-Hse-lactone ([3]; 27.2 mg/ml potassium dihydrogenphosphate, pH 3.0, 60° C. 30 days): 31.1%
Amount of formed [Leu^13 ]-motilin-Hse-lactone ([3]; 27.2 mg/ml potassium dihydrogenphosphate, pH 4.0, 60° C. 30 days): 17.5%
Amount of formed [Leu^13 ]-motilin-Hse-lactone ([3]; 27.2 mg/ml potassium dihydrogenphosphate, pH 4.5, 60° C. 30 days): 9.3%
Amount of formed [Leu^13 ]-motilin-Hse-lactone ([3]; 27.2 mg/ml potassium dihydrogenphosphate, pH 5.0, 60° C. 30 days): 5.7%
Amount of formed [Leu^13 ]-motilin-Hse-lactone ([3]; 27.2 mg/ml potassium dihydrogenphosphate, pH 5.5, 60° C. 30 days): 2.1%
Amount of formed [Leu^13 ]-motilin-Hse-lactone ([3]; 27.2 mg/ml potassium dihydrogenphosphate, pH 6.0, 60° C. 30 days): 0%
Amount of formed [Leu^13 ]-motilin-Hse-lactone ([3]; 27.2 mg/ml potassium dihydrogenphosphate, pH 6.5, 60° C. 30 days): 0%
Amount of formed [Leu^13 ]-motilin-Hse-lactone ([3]; 27.2 mg/ml potassium dihydrogenphosphate, pH 7.0, 60° C. 30 days): 0%
Amount of formed [Leu^13 ]-motilin-Hse-lactone ([3]; 27.2 mg/ml potassium dihydrogenphosphate, pH 8.0, 60° C. 30 days): 0%
Amount of formed [Leu^13 ]-motilin-Hse-lactone ([3]; 27.2 mg/ml potassium dihydrogenphosphate, pH 9.0, 60° C. 30 days): 0%
Amount of formed [Leu^13 ]-motilin-Hse-lactone ([3]; 30 mg/ml tartaric acid, pH 3.0, 60° C. 30 days): 29.7%
Amount of formed [Leu^13 ]-motilin-Hse-lactone ([3]; 30 mg/ml tartaric acid, pH 4.0, 60° C. 30 days): 16.8%
Amount of formed [Leu^13 ]-motilin-Hse-lactone ([3]; 30 mg/ml tartaric acid, pH 4.5, 60° C. 30 days): 6.4%
Amount of formed [Leu^13 ]-motilin-Hse-lactone ([3]; 30 mg/ml tartaric acid, pH 5.0, 60° C. 30 days): 2.7%
Amount of formed [Leu^13 ]-motilin-Hse-lactone ([3]; 30 mg/ml tartaric acid, pH 5.5, 60° C. 30 days): 1.5%
Amount of formed [Leu^13 ]-motilin-Hse-lactone ([3]; 30 mg/ml tartaric acid, pH 6.0, 60° C. 30 days): 0%
Amount of formed [Leu^13 ]-motilin-Hse-lactone ([3]; 30 mg/ml tartaric acid, pH 6.5, 60° C. 30 days): 0%
Amount of formed [Leu^13 ]-motilin-Hse-lactone ([3]; 30 mg/ml tartaric acid, pH 7.0, 60° C. 30 days): 0%
Amount of formed [Leu^13 ]-motilin-Hse-lactone ([3]; 30 mg/ml tartaric acid, pH 8.0, 60° C. 30 days): 0%
Amount of formed [Leu^13 ]-motilin-Hse-lactone ([3]; 30 mg/ml tartaric acid, pH 9.0, 60° C. 30 days): 0%
Amount of formed [Leu^13 ]-motilin-Hse-lactone ([3]; no additive, pH 3.0, 60° C. 30 days): 30.2%
Amount of formed [Leu^13 ]-motilin-Hse-lactone ([3]; no additive, pH 4.0, 60° C. 30 days): 18.7%
Amount of formed [Leu^13 ]-motilin-Hse-lactone ([3]; no additive, pH 4.5, 60° C. 30 days): 8.7%
Amount of formed [Leu^13 ]-motilin-Hse-lactone ([3]; no additive, pH 5.0, 60° C. 30 days): 5.5%
Amount of formed [Leu^13 ]-motilin-Hse-lactone ([3]; no additive, pH 5.5, 60° C. 30 days): 1.9%
Amount of formed [Leu^13 ]-motilin-Hse-lactone ([3]; no additive, pH 6.0, 60° C. 30 days): 0%
Amount of formed [Leu^13 ]-motilin-Hse-lactone ([3]; no additive, pH 6.5, 60° C. 30 days): 0%
Amount of formed [Leu^13 ]-motilin-Hse-lactone ([3]; no additive, pH 7.0, 60° C. 30 days): 0%
Amount of formed [Leu^13 ]-motilin-Hse-lactone ([3]; no additive, pH 8.0, 60° C. 30 days): 0%
Amount of formed [Leu^13 ]-motilin-Hse-lactone ([3]; no additive, pH 9.0, 60° C. 30 days): 0%
Substance: [Leu^13 ]-motilin-Hse
biological activities [1]: higher biological activities
